Tests used:
[1] = IV Cassette PK Assay in rats; format: in vivo; details: rat, male Wistar-Han rats, plasma, read-out: Cassette PK T1/2 (hr), Imidazo-Pyrazinyl Analog (converted)
Experimental: The results were obtained using the following the procedure:
Adult male Wistar-Han rats were fasted overnight and administered a cassette IV dose of mixture of several compounds via a previously implanted catheter in the femoral vein. Animals were allowed access to food 4 h post dose. Blood samples were collected into EDTA-containing tubes at the following time points: 0.03, 0.13, 0.25, 0.5, 1, 2, 4, 8 h post-dose. Blood samples were stored on ice until plasma was harvested by centrifugation. Plasma was transferred to a 96-well plate and stored at −20° C. until analysis. Concentrations of each compound in rat plasma were determined by LC-MS/MS following protein precipitation.

[2] = target: T1, sGC α1/β1 heterodimer (Homo sapiens, UniProt Q02108+Q02153); experiment: Cell-Based sGC Functional Assay (CASA Assay), cGMP generation in CHO-K1/sGC cells;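 further: reference Compound A is a published heme-dependent sGC activator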; details: maximum cGMP production of Compound A set to 100% activation, read-out: % Act. (percent activation relative to Compound A)
T1 construct: expressed in transfected cells
T1 sequence (Q02108 1-690): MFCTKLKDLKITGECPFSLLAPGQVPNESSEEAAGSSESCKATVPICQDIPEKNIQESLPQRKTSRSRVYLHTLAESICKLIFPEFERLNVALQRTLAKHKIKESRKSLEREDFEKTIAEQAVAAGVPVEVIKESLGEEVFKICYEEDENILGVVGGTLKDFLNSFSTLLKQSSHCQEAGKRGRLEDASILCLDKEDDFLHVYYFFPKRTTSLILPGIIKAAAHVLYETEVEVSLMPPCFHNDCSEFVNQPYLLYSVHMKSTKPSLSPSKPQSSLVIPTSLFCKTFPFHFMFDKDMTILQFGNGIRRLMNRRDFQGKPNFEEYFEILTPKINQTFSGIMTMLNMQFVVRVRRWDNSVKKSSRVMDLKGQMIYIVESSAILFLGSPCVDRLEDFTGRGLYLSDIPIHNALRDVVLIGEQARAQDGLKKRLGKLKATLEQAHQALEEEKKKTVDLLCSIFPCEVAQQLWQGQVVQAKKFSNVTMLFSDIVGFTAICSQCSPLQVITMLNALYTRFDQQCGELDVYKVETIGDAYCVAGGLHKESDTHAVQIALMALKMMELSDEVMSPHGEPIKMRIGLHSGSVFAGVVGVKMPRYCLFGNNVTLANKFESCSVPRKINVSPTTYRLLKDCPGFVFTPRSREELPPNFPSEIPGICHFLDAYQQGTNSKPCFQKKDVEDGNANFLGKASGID
T1 sequence (Q02153 1-619): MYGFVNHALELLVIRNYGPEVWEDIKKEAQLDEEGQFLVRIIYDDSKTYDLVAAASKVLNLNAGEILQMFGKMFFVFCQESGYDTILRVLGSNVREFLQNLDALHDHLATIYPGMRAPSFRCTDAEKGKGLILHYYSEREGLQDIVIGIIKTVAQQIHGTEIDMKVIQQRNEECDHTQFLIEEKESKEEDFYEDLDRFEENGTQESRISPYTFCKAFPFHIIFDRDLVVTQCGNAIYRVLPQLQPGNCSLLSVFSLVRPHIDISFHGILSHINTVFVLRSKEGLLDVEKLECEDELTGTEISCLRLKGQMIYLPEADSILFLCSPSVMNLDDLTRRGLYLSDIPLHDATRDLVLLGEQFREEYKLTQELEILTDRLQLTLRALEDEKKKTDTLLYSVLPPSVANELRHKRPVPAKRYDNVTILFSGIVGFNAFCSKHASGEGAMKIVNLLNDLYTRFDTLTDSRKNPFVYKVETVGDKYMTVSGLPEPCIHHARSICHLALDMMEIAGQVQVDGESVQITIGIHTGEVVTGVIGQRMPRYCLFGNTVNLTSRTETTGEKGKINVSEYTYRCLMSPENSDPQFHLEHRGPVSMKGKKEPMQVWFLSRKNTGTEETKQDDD
Method in brief: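 CHO-K1 cells stably expressing human sGC α1/β1, 4×10^5/mL in EBSS with 5 mM MgCl2, 10 mM HEPES, 0.05% BSA, 0.5 mM IBMX, 2.5% DMSO; compounds 1 h at 37 °C ± 1 μM DETA-NO. cGMP by HTRF, expressed as % of reference Compound A maximum; IP and max fold induction from 4P fit.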

[3] = tested on: Spontaneously hypertensive rats (SHR); experiment: Acute Efficacy in Spontaneously Hypertensive Rats (SHR), telemetry blood pressure; format: in vivo, rat; details: single oral gavage
Method in brief: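 Male SHR fitted with aortic telemetry transmitters and recovered 14 days; conscious blood pressure sampled 30 s every 10 min. Single oral gavage dose (vehicle 10% transcutol/20% Cremophor/70% water); hourly SBP change versus prior-day vehicle baseline, reported as maximum peak decrease.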

Row | Emax [2] | SMILES | Maximum peak decrease of systolic blood pressure (SBP) in SHR, Cat. ([3]; P.O. 1 mpk) | further results
1 | – | CC1(c2ccc(F)cn2)C(=O)Nc2nc(-c3cn4ccnc4c(CCC(F)(F)C(F)(F)F)n3)nc(N)c21 (stereo not shown) | – | half-life [1]: 1.41 h
2 | – | Nc1nc(-c2cn3ccnc3c(CCCC(F)(F)F)n2)nc2c1C(c1ccc(C(F)F)cn1)(C1CC1)C(=O)N2 (stereo not shown) | – | half-life [1]: 2.12 h
3 | 253% | CCCc1nc(-c2nc(O)c3c(n2)NC(=O)C3(C)c2ccc(Cl)cc2)cn2ncnc12 (stereo not shown) [Example 164A, 5-(4-chlorophenyl)-4-hydroxy-5-methyl-2-(8-propyl-[1,2,4]triazolo[1,5-a]pyrazin-6-yl)-5H-pyrrolo[2,3-d]pyrimidin-6(7H)-one] | – | Maximum peak decrease of systolic blood pressure (SBP) in SHR, Cat. ([3]; P.O. 2 mpk): B (Category B=SBP in SHRs 20-40 mmHg)
4 | 114% | CCCc1nc(-c2nc(O)c3c(n2)NC(=O)[C@@]3(C)c2ccc(F)cc2)cn2ncnc12 [Example 165A, (S)-5-(4-fluorophenyl)-4-hydroxy-5-methyl-2-(8-propyl-[1,2,4]triazolo[1,5-a]pyrazin-6-yl)-5,7-dihydro-6H-pyrrolo[2,3-d]pyrimidin-6-one] | – | Maximum peak decrease of systolic blood pressure (SBP) in SHR, Cat. ([3]; P.O. 3 mpk): B (Category B=SBP in SHRs 20-40 mmHg)
5 | 117% | CCCc1nc(-c2nc(O)c3c(n2)NC(=O)C3(C)c2ccc(Cl)c(F)c2)cn2ncnc12 (stereo not shown) [Example 166B, 5-(4-chloro-3-fluorophenyl)-4-hydroxy-5-methyl-2-(8-propyl-[1,2,4]triazolo[1,5-a]pyrazin-6-yl)-5H-pyrrolo[2,3-d]pyrimidin-6(7H)-one] | – | Maximum peak decrease of systolic blood pressure (SBP) in SHR, Cat. ([3]; P.O. 3 mpk): B (Category B=SBP in SHRs 20-40 mmHg)
6 | 176% | CC(C)Cc1nc(-c2ncc3c(n2)NC(=O)[C@@]3(C)c2ccc(F)cc2)cn2ncnc12 [Example 173A, (S)-5-(4-fluorophenyl)-2-(8-isobutyl-[1,2,4]triazolo[1,5-a]pyrazin-6-yl)-5-methyl-5,7-dihydro-6H-pyrrolo[2,3-d]pyrimidin-6-one] | A (Category A=SBP in SHRs <20 mmHg) | –
7 | 168% | C[C@@]1(c2ccc(F)cc2)C(=O)Nc2nc(-c3cn4ncnc4c(CCC(F)(F)C(F)(F)F)n3)nc(C(N)=O)c21 [Example 177A, 5-(4-Fluorophenyl)-5-methyl-6-oxo-2-(8-(3,3,4,4,4-pentafluorobutyl)-[1,2,4]triazolo[1,5-a]pyrazin-6-yl)-6,7-dihydro-5H-pyrrolo[2,3-d]pyrimidine-4-carboxamide] | C (Category C=SBP in SHRs >40 mmHg) | –
8 | 108% | NC(=O)c1nc(-c2cn3ncnc3c(CCCC(F)(F)F)n2)nc2c1C(c1ccc(C(F)(F)F)cn1)(C1CC1)C(=O)N2 (stereo not shown) [Example 178A] | B (Category B=SBP in SHRs 20-40 mmHg) | –
9 | 101% | CC1(c2ccc(C(F)(F)F)cn2)C(=O)Nc2nc(-c3cn4ncnc4c(CCCC(F)(F)F)n3)nc(C(N)=O)c21 (stereo not shown) [Example 179B, 5-methyl-6-oxo-2-(8-(4,4,4-trifluorobutyl)-[1,2,4]triazolo[1,5-a]pyrazin-6-yl)-5-(5-(trifluoromethyl)pyridin-2-yl)-6,7-dihydro-5H-pyrrolo[2,3-d]pyrimidine-4-carboxamide] | – | Maximum peak decrease of systolic blood pressure (SBP) in SHR, Cat. ([3]; P.O. 0.3 mpk): B (Category B=SBP in SHRs 20-40 mmHg)

Reference: patent publication US10925876B2, “Methods for using triazolo-pyrazinyl soluble guanylate cyclase activators in fibrotic disorders” (Merck Sharp & Dohme Corp., priority 2016, dated 2021)
